Test results taken from patent US20060069132A1, “Azolecarboxamide herbicides” (priority 2004, published 2006).

Key:
[1] = test system: ducksalad; assay: Test D flooded paddy test; assay type: in vivo, Heteranthera limosa; conditions: 21 days, scale 0 to 100
Text: (§1) Three plastic pots (ca. 16-cm diameter) per rate were partially filled with sterilized Tama silt loam soil comprising a 35:50:15 ratio of sand, silt and clay and 2.6% organic matter. Separate plantings for each of the three pots were as follows. Seeds from the U.S. of ducksalad (Heteranthera limosa (Sw.) Willd.), smallflower umbrella sedge (Cyperus difformis L.) and purple redstem (Ammannia coccinea Rottb.), were planted into one 16-cm pot for each rate. Seeds from the U.S. of rice flatsedge (Cyperus iria L.), bearded sprangletop (Leptochloa fascicularis (Lam.) Gray), one stand of 9 or 10 water seeded rice seedlings (Oryza sativa L. cv. ‘Japonica—M202’), and one stand of 6 transplanted rice seedlings (Oryza sativa L. cv. ‘Japonica—M202’) were planted into one 16-cm pot for each rate. Seeds from the U.S. of barnyardgrass (Echinochloa crus-galli (L.) Beauv.), late watergrass (Echinochloa oryzicola Vasinger), early watergrass (Echinochloa oryzoides (Ard.) Fritsch) and junglerice (Echinochloa colona (L.) Link) were planted into one 16-cm pot for each rate. Plantings were sequential so that crop and weed species were at the 2.0 to 2.5-leaf stage at time of treatment.
(§2) Potted plants were grown in a greenhouse with day/night temperature settings of 29.5/26.7° C., and supplemental balanced lighting was provided to maintain a 16-hour photoperiod. Test pots were maintained in the greenhouse until test completion.
(§3) At time of treatment, test pots were flooded to 3 cm above the soil surface, treated by application of test compounds directly to the paddy water, and then maintained at that water depth for the duration of the test. Effects of treatments on rice and weeds were visually evaluated by comparison to untreated controls after 21 days. Plant response ratings are reported on a 0 to 100 scale; where 0 is no effect and 100 is complete control. A dash (-) response means no test result.

[2] = test system: purple redstem; assay: Test D flooded paddy test; assay type: in vivo, Ammannia coccinea; conditions: 21 days, scale 0 to 100
Text: as §1, §2, §3

[3] = test system: rice flatsedge; assay: Test D flooded paddy test; assay type: in vivo, Cyperus iria; conditions: 21 days, scale 0 to 100
Text: as §1, §2, §3

[4] = test system: barnyardgrass; assay: Test D flooded paddy test; assay type: in vivo, Echinochloa crus-galli; conditions: 21 days, scale 0 to 100
Text: as §1, §2, §3

[5] = test system: smallflower umbrella sedge; assay: Test D flooded paddy test; assay type: in vivo, Cyperus difformis; conditions: 21 days, scale 0 to 100
Text: as §1, §2, §3

[6] = test system: water seeded rice seedlings; assay: Test D flooded paddy test; assay type: in vivo, Oryza sativa; conditions: 21 days, scale 0 to 100
Text: as §1, §2, §3

[7] = test system: transplanted rice seedlings; assay: Test D flooded paddy test; assay type: in vivo, Oryza sativa; conditions: 21 days, scale 0 to 100
Text: as §1, §2, §3

[8] = test system: wheat cv. Recital; assay: Test I safening of Compound 6 by Harmony Extra Herbicide, pre-/postemergence; assay type: in vivo, Triticum aestivum
Protocol: This test evaluated the safening of Compound 6 on barley (Hordeum vulgare L.) cv. ‘Boone’ and wheat (Triticum aestivum L.) cv. ‘Recital’ by Harmony® Extra Herbicide, which comprises 50 wt % thifensulfuron-methyl and 25 wt % tribenuron-methyl. Barley and wheat seeds were planted in pots containing a pasteurized blend of Matapeake soil and sand. For postemergence testing the plants were grown 10 days so the barley seedlings were at the 2-leaf stage and the wheat seedlings were at the 2-3-leaf stage at time of treatment. Preemergence treatments were applied the day after the seeds were planted. Treatments were applied by spraying Compound 6 and/or […] in a non-phytotoxic solvent mixture, using flat fan nozzle and a spray volume of 280 L/ha. The treatments were triply replicated and the results subsequently averaged. The pots were placed on a greenhouse bench using a complete randomized block design except for the first replicate, which was unrandomized. The plants were grown in the greenhouse and watered as needed with a dilute nutrient solution containing 200 ppm of N. Illumination was daylight supplemented by artificial sources to maintain a photoperiod of 14 hours. The temperature was maintained at 23±2° C. during the day and 17±2° C. at night. The effects of the treatments were rated 25 days after preemergence treatment and 15 days after postemergence treatment. The plant response was visually rated in comparison to untreated controls using a scale of 0 to 100, with 0 representing no effect and 100 representing complete plant death.
Colby's Equation was used to calculate the expected additive herbicidal effect of the mixtures of Compound 6 with Harmony® Extra (i.e. a 2:1 mixture by weight of thifensulfuron-methyl and tribenuron-methyl). Colby's Equation (Colby, S. R. “Calculating Synergistic and Antagonistic Responses of Herbicide Combinations,” Weeds, 15(1), pp 20-22 (1967)) calculates the expected additive effect of herbicidal mixtures, and for two active ingredients is of the form: Pa+b=Pa+Pb−(PaPb/100) wherein • Pa+b is the percentage effect of the mixture expected from additive contribution of the individual components, • Pa is the observed percentage effect of the first active ingredient at the same use rate as in the mixture, and • Pb is the observed percentage effect of the second active ingredient at the same use rate as in the mixture.
The results and additive effects expected from Colby's Equation for the preemergence test are listed in Table I1, and the results and additive effects expected from Colby's Equation for the postemergence test are listed in Table I2.

## CCc1nc(C(C)(C)C)sc1C(=O)Nc1cccc(C(=O)NCC2CC2)n1 [Compound 215]
[1]; 125 g ai/ha
  Plant response rating, Ducksalad: 0
[1]; 250 g ai/ha
  Plant response rating, Ducksalad: 0
[1]; 500 g ai/ha
  Plant response rating, Ducksalad: 20
[1]; 750 g ai/ha
  Plant response rating, Ducksalad: 20
[1]; 1000 g ai/ha
  Plant response rating, Ducksalad: 75
[2]; 125 g ai/ha
  Plant response rating, Redstem: 0
[2]; 250 g ai/ha
  Plant response rating, Redstem: 100
[2]; 500 g ai/ha
  Plant response rating, Redstem: 100
[2]; 750 g ai/ha
  Plant response rating, Redstem: 100
[2]; 1000 g ai/ha
  Plant response rating, Redstem: 100
[3]; 125 g ai/ha
  Plant response rating, Flatsedge, Rice: 0
[3]; 250 g ai/ha
  Plant response rating, Flatsedge, Rice: 60
[3]; 500 g ai/ha
  Plant response rating, Flatsedge, Rice: 60
[3]; 750 g ai/ha
  Plant response rating, Flatsedge, Rice: 80
[3]; 1000 g ai/ha
  Plant response rating, Flatsedge, Rice: 90
[4]; 125 g ai/ha
  Plant response rating, Barnyardgrass: 0
[4]; 250 g ai/ha
  Plant response rating, Barnyardgrass: 0
[4]; 500 g ai/ha
  Plant response rating, Barnyardgrass: 0
[4]; 750 g ai/ha
  Plant response rating, Barnyardgrass: 30
[4]; 1000 g ai/ha
  Plant response rating, Barnyardgrass: 40
[5]; 125 g ai/ha
  Plant response rating, Sedge, Umbrella: 20
[5]; 250 g ai/ha
  Plant response rating, Sedge, Umbrella: 95
[5]; 500 g ai/ha
  Plant response rating, Sedge, Umbrella: 95
[5]; 750 g ai/ha
  Plant response rating, Sedge, Umbrella: 95
[5]; 1000 g ai/ha
  Plant response rating, Sedge, Umbrella: 100
[6]; 125 g ai/ha
  Plant response rating, Rice, Water Seeded: 20
[6]; 250 g ai/ha
  Plant response rating, Rice, Water Seeded: 35
[6]; 500 g ai/ha
  Plant response rating, Rice, Water Seeded: 45
[6]; 750 g ai/ha
  Plant response rating, Rice, Water Seeded: 45
[6]; 1000 g ai/ha
  Plant response rating, Rice, Water Seeded: 45
[7]; 125 g ai/ha
  Plant response rating, Rice, Transplanted: 0
[7]; 250 g ai/ha
  Plant response rating, Rice, Transplanted: 10
[7]; 500 g ai/ha
  Plant response rating, Rice, Transplanted: 20
[7]; 750 g ai/ha
  Plant response rating, Rice, Transplanted: 20
[7]; 1000 g ai/ha
  Plant response rating, Rice, Transplanted: 35

## CCNC(=O)c1ccnc(NC(=O)c2cc(C(C)(C)C)nn2CC)c1 [Compound 152]
[1]; 8 g ai/ha
  Plant response rating, Ducksalad: 0
[1]; 16 g ai/ha
  Plant response rating, Ducksalad: 70
[1]; 32 g ai/ha
  Plant response rating, Ducksalad: 75
[1]; 64 g ai/ha
  Plant response rating, Ducksalad: 80
[1]; 125 g ai/ha
  Plant response rating, Ducksalad: 90
[2]; 8 g ai/ha
  Plant response rating, Redstem: 0
[2]; 16 g ai/ha
  Plant response rating, Redstem: 0
[2]; 32 g ai/ha
  Plant response rating, Redstem: 60
[2]; 64 g ai/ha
  Plant response rating, Redstem: 85
[2]; 125 g ai/ha
  Plant response rating, Redstem: 90
[3]; 8 g ai/ha
  Plant response rating, Flatsedge, Rice: 75
[3]; 16 g ai/ha
  Plant response rating, Flatsedge, Rice: 75
[3]; 32 g ai/ha
  Plant response rating, Flatsedge, Rice: 75
[3]; 64 g ai/ha
  Plant response rating, Flatsedge, Rice: 90
[3]; 125 g ai/ha
  Plant response rating, Flatsedge, Rice: 95
[4]; 8 g ai/ha
  Plant response rating, Barnyardgrass: 0
[4]; 16 g ai/ha
  Plant response rating, Barnyardgrass: 0
[4]; 32 g ai/ha
  Plant response rating, Barnyardgrass: 0
[4]; 64 g ai/ha
  Plant response rating, Barnyardgrass: 10
[4]; 125 g ai/ha
  Plant response rating, Barnyardgrass: 35
[5]; 8 g ai/ha
  Plant response rating, Sedge, Umbrella: 0
[5]; 16 g ai/ha
  Plant response rating, Sedge, Umbrella: 70
[5]; 32 g ai/ha
  Plant response rating, Sedge, Umbrella: 75
[5]; 64 g ai/ha
  Plant response rating, Sedge, Umbrella: 85
[5]; 125 g ai/ha
  Plant response rating, Sedge, Umbrella: 95
[6]; 8 g ai/ha
  Plant response rating, Rice, Water Seeded: 0
[6]; 16 g ai/ha
  Plant response rating, Rice, Water Seeded: 20
[6]; 32 g ai/ha
  Plant response rating, Rice, Water Seeded: 30
[6]; 64 g ai/ha
  Plant response rating, Rice, Water Seeded: 40
[6]; 125 g ai/ha
  Plant response rating, Rice, Water Seeded: 45
[7]; 8 g ai/ha
  Plant response rating, Rice, Transplanted: 0
[7]; 16 g ai/ha
  Plant response rating, Rice, Transplanted: 20
[7]; 32 g ai/ha
  Plant response rating, Rice, Transplanted: 25
[7]; 64 g ai/ha
  Plant response rating, Rice, Transplanted: 40
[7]; 125 g ai/ha
  Plant response rating, Rice, Transplanted: 45

## CCn1nc(C(C)(C)C)cc1C(=O)Nc1cc(C(=O)N(C)C)ccc1F [Compound 6, N-[5-[(dimethylamino)carbonyl]-2-fluorophenyl]-3-(1,1-dimethylethyl)-1-ethyl-1H-pyrazole-5-carboxamide]
[8]; postemergence, Compound 6 16, thifensulfuron-methyl 0, tribenuron-methyl 0 g a.i./ha
  Wheat Observed effect: 58
[8]; postemergence, Compound 6 31, thifensulfuron-methyl 0, tribenuron-methyl 0 g a.i./ha
  Wheat Observed effect: 65
[8]; preemergence, Compound 6 16, thifensulfuron-methyl 0, tribenuron-methyl 0 g a.i./ha
  Wheat Observed effect: 45
[8]; preemergence, Compound 6 31, thifensulfuron-methyl 0, tribenuron-methyl 0 g a.i./ha
  Wheat Observed effect: 67
